# Assay results from patent publication US20250353861A1, “DERIVATIVE OF ARTEMISININ AND PREPARATION METHOD AND USE THEREOF” (SHANGHAI INNOFORTUNE BIOTECH CO. LTD., priority 2022, published 2025).
# Legend:
# [1] = system: corneal neovascularization in New Zealand rabbits with alkali burn; assay: Effects on corneal neovascularization in New Zealand rabbits with alkali burn; format: in vivo; settings: 1% eye drops 3 times a day; for Formation of new blood vessels in the cornea (slit-lamp photographs, FIG. 2), comparison of groups: preliminary conclusion from the figures; for Number of New Zealand rabbit eyes with appearance of fluorescein-stained spots / Number of New Zealand rabbit eyes with conjunctival congestion / Number of New Zealand rabbit eyes with corneal edema / Number of New Zealand rabbit eyes with neovascularization: 2 drops, 12 eyes per group (10 for SZY1905-P32)
# Protocol: Twenty-four New Zealand rabbits were first given intravenous anesthesia with a chloralhydrate solution at a dose of about 0.5 mL/kg, followed by ocular surface anesthesia with 0.5% tetracaine hydrochloride eye drops. A piece of filter paper with a diameter of about 8 mm was immersed in 1 mol/L NaOH solution for 1 minute to reach saturation. The saturated filter paper was placed in the center of the cornea for 1 minute and then removed, immediately followed by repeatedly rinsing the cornea and the conjunctival sac with 0.9% sodium chloride injection for 1 minute. After that, tobramycin dexamethasone sodium phosphate eye drops were administered. After modeling, the twenty-four animals were divided into four groups, which were: Model group; SZY1905-P30 eye drops-administered group; […] The eye drops were administered 3 times a day, 2 drops each time. The Model group was not administered with any drugs. […] The cornea was then stained with fluorescein sodium, and observed under the slit-lamp microscope and photographed.
# [2] = Testing of solubility at different pH values
# Protocol: First, a series of solutions with pH-5-8 were prepared using phosphoric acid and NaOH.
# [3] = Testing of stability at different pH values (HPLC); format: physicochemical
# Protocol: 10 mg of the sample was weighed and 10 mL of an aqueous solution at a different pH value was added, followed by ultrasonic dissolving and filtration. HPLC testing was then performed.
# [4] = 1st day of the modeling (0 day of administration)
# [5] = 7th day of the modeling (6th day of administration)
# [6] = 14th day of the modeling (13th day of administration)
Structure (SMILES),"Formation of new blood vessels in the cornea (slit-lamp photographs, FIG. 2), comparison of groups [1]","Number of New Zealand rabbit eyes with appearance of fluorescein-stained spots [1, 4]","Number of New Zealand rabbit eyes with conjunctival congestion [1, 4]","Number of New Zealand rabbit eyes with corneal edema [1, 4]","Number of New Zealand rabbit eyes with neovascularization [1, 4]","Number of New Zealand rabbit eyes with appearance of fluorescein-stained spots [1, 5]","Number of New Zealand rabbit eyes with conjunctival congestion [1, 5]","Number of New Zealand rabbit eyes with corneal edema [1, 5]","Number of New Zealand rabbit eyes with neovascularization [1, 5]","Number of New Zealand rabbit eyes with appearance of fluorescein-stained spots [1, 6]","Number of New Zealand rabbit eyes with conjunctival congestion [1, 6]","Number of New Zealand rabbit eyes with corneal edema [1, 6]","Number of New Zealand rabbit eyes with neovascularization [1, 6]","Stability, 0 day (%) ([3]; Purified water, 10 mg in 10 mL)","Stability, 8th day (%) ([3]; Purified water, 10 mg in 10 mL)","Stability, 20th day (%) ([3]; Purified water, 10 mg in 10 mL)","Stability, 30th day (%) ([3]; Purified water, 10 mg in 10 mL)","Stability, 0 day (%) ([3]; pH = 5.0, 10 mg in 10 mL)","Stability, 8th day (%) ([3]; pH = 5.0, 10 mg in 10 mL)","Stability, 20th day (%) ([3]; pH = 5.0, 10 mg in 10 mL)",other results
"C[C@H]1[C@H](OCCCN)O[C@@H]2O[C@@]3(C)CC[C@H]4[C@H](C)CC[C@@H]1C24OO3 [SZY1905-P32, reference compound]",new vessels have spread to the entire cornea,10,1,8,0,9,0,4,6,8,0,3,7,,,,,,,,
"C[C@H]1[C@H](OCCC[N+](C)(C)C)O[C@@H]2O[C@@]3(C)CC[C@H]4[C@H](C)CC[C@@H]1C24OO3 [SZY1905-P30, artemisinin quaternary ammonium propyl ether iodate]",can delay the rapid formation of new blood vessels significantly better than the SZY1905-P32 eye drops-administered group,12,2,8,0,6,0,2,3,5,0,1,4,97.09,96.91,97.04,97.28,97.23,96.90,97.01,"solubility ([2]; aqueous solution adjusted with phosphoric acid and NaOH, 25 °C, pH 5, aqueous buffer): > 1000 µg/mL; solubility ([2]; aqueous solution adjusted with phosphoric acid and NaOH, 25 °C, pH 6, aqueous buffer): > 1000 µg/mL; solubility ([2]; aqueous solution adjusted with phosphoric acid and NaOH, 25 °C, pH 7, aqueous buffer): > 1000 µg/mL; solubility ([2]; aqueous solution adjusted with phosphoric acid and NaOH, 25 °C, pH 8, aqueous buffer): > 1000 µg/mL; solubility ([2]; purified water, 25 °C, water): > 10000 µg/mL; Stability, 30th day (%) ([3]; pH = 5.0, 10 mg in 10 mL): 97.25%; Stability, 0 day (%) ([3]; pH = 6.0, 10 mg in 10 mL): 97.24%; Stability, 8th day (%) ([3]; pH = 6.0, 10 mg in 10 mL): 96.95%; Stability, 20th day (%) ([3]; pH = 6.0, 10 mg in 10 mL): 96.81%; Stability, 30th day (%) ([3]; pH = 6.0, 10 mg in 10 mL): 97.23%; Stability, 0 day (%) ([3]; pH = 7.0, 10 mg in 10 mL): 97.34%; Stability, 8th day (%) ([3]; pH = 7.0, 10 mg in 10 mL): 97.09%; Stability, 20th day (%) ([3]; pH = 7.0, 10 mg in 10 mL): 96.97%; Stability, 30th day (%) ([3]; pH = 7.0, 10 mg in 10 mL): 97.26%; Stability, 0 day (%) ([3]; pH = 8.0, 10 mg in 10 mL): 97.22%; Stability, 8th day (%) ([3]; pH = 8.0, 10 mg in 10 mL): 97.13%; Stability, 20th day (%) ([3]; pH = 8.0, 10 mg in 10 mL): 96.98%; Stability, 30th day (%) ([3]; pH = 8.0, 10 mg in 10 mL): 97.13%"
"C[C@H]1[C@H](OCCCC[N+](C)(C)C)O[C@@H]2O[C@@]3(C)CC[C@H]4[C@H](C)CC[C@@H]1C24OO3.[I-] [SZY1905-P31, artemisinin quaternary ammonium butyl ether iodate]",can delay the rapid formation of new blood vessels significantly better than the SZY1905-P32 eye drops-administered group,12,2,9,0,7,0,3,3,6,0,3,3,98.05,97.68,97.35,97.46,98.11,97.69,97.38,"solubility ([2]; Purified water, 25° C. (room temperature)): >10000 µg/mL; solubility ([2]; pH 5.0, 25° C. (room temperature)): >1000 µg/mL; solubility ([2]; pH 6.0, 25° C. (room temperature)): >1000 µg/mL; solubility ([2]; pH 7.0, 25° C. (room temperature)): >1000 µg/mL; solubility ([2]; pH 8.0, 25° C. (room temperature)): >1000 µg/mL; Stability, 30th day (%) ([3]; pH = 5.0, 10 mg in 10 mL): 97.48%; Stability, 0 day (%) ([3]; pH = 6.0, 10 mg in 10 mL): 98.16%; Stability, 8th day (%) ([3]; pH = 6.0, 10 mg in 10 mL): 97.64%; Stability, 20th day (%) ([3]; pH = 6.0, 10 mg in 10 mL): 97.39%; Stability, 30th day (%) ([3]; pH = 6.0, 10 mg in 10 mL): 97.48%; Stability, 0 day (%) ([3]; pH = 7.0, 10 mg in 10 mL): 98.26%; Stability, 8th day (%) ([3]; pH = 7.0, 10 mg in 10 mL): 97.85%; Stability, 20th day (%) ([3]; pH = 7.0, 10 mg in 10 mL): 97.57%; Stability, 30th day (%) ([3]; pH = 7.0, 10 mg in 10 mL): 97.58%; Stability, 0 day (%) ([3]; pH = 8.0, 10 mg in 10 mL): 98.14%; Stability, 8th day (%) ([3]; pH = 8.0, 10 mg in 10 mL): 97.64%; Stability, 20th day (%) ([3]; pH = 8.0, 10 mg in 10 mL): 97.33%; Stability, 30th day (%) ([3]; pH = 8.0, 10 mg in 10 mL): 97.49%"
